Tests used:
Experiment in all cases: viability relative to DMSO control (fraction); higher = less drug effect (more viable cells)
Conditions in all cases: 48 h
[1] = system: primary DLBCL patient cells (S082)
Method in brief: (§1)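 Using 384-well plates with compounds already plated at five concentrations, one well per concentration, 4 × 10^4 primary mononuclear tumour cells were added per well. Cells were Ficoll-isolated from blood or bone marrow or came from processed lymph node, fresh or cryopreserved. They were kept for 48 h at 37 °C and 5% CO2 in RPMI-1640 supplemented with penicillin/streptomycin, L-glutamine and human serum, and viability was read as CellTiter-Glo luminescence relative to the median of 16 inner DMSO wells.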

[2] = system: primary AML patient cells (S091)
Method in brief: as §1

[3] = system: primary MCL patient cells (S041)
Method in brief: as §1

[4] = system: primary B-PLL patient cells (S016)
Method in brief: as §1

[5] = system: primary AML patient cells (S019)
Method in brief: as §1

[6] = system: primary AML patient cells (S089)
Method in brief: as §1

[7] = system: primary AML patient cells (S071)
Method in brief: as §1

[8] = system: primary CLL patient cells (S031)
Method in brief: as §1

[9] = system: primary AML patient cells (S037)
Method in brief: as §1

[10] = system: primary AML patient cells (S060)
Method in brief: as §1

[11] = system: primary FL patient cells (S087)
Method in brief: as §1

[12] = system: primary AML patient cells (S011)
Method in brief: as §1

[13] = system: primary AML patient cells (S085)
Method in brief: as §1

[14] = system: primary ALL patient cells (S088)
Method in brief: as §1

For `O=C1c2c(O)ccc(O)c2C(=O)c2c(NCCNCCO)ccc(NCCNCCO)c21` [Mitoxantrone], the viability ([1]; 0.008 µM) was 0.886, the viability ([1]; 0.04 µM) was 0.691 and the viability ([1]; 0.2 µM) was 0.541. The viability ([1]; 1 µM) was 0.538, the viability ([1]; 5 µM) was 0.0152 and the viability ([2]; 0.008 µM) was 0.494. For the same molecule, the viability ([2]; 0.04 µM) was 0.563, the viability ([2]; 0.2 µM) was 0.46 and the viability ([2]; 1 µM) was 0.118. It also gave a viability ([2]; 5 µM) of 0.0676, a viability ([3]; 0.008 µM) of 0.985 and a viability ([3]; 0.04 µM) of 0.862. For the same molecule, the viability ([3]; 0.2 µM) was 0.569, the viability ([3]; 1 µM) was 0.0728 and the viability ([3]; 5 µM) was 0.015. The viability ([4]; 0.008 µM) was 0.278, the viability ([4]; 0.04 µM) was 0.0753 and the viability ([4]; 0.2 µM) was 0.0754. For the same molecule, the viability ([4]; 1 µM) was 0.0236, the viability ([4]; 5 µM) was 0.014 and the viability ([5]; 0.008 µM) was 0.647. For the same molecule, the viability ([5]; 0.04 µM) was 0.256, the viability ([5]; 0.2 µM) was 0.282 and the viability ([5]; 1 µM) was 0.132. For the same molecule, the viability ([5]; 5 µM) was 0.0646, the viability ([6]; 0.008 µM) was 0.339 and the viability ([6]; 0.04 µM) was 0.966. For the same molecule, the viability ([6]; 0.2 µM) was 0.0966, the viability ([6]; 1 µM) was 0.0273 and the viability ([6]; 5 µM) was 0.0313. For the same molecule, the viability ([7]; 0.008 µM) was 0.139, the viability ([7]; 0.04 µM) was 0.125 and the viability ([7]; 0.2 µM) was 0.124. For the same molecule, the viability ([7]; 1 µM) was 0.102, the viability ([7]; 5 µM) was 0.0662 and the viability ([8]; 0.008 µM) was 0.614. The viability ([8]; 0.04 µM) was 0.383, the viability ([8]; 0.2 µM) was 0.335 and the viability ([8]; 1 µM) was 0.0955. The viability ([8]; 5 µM) was 0.0133, the viability ([9]; 0.008 µM) was 0.843 and the viability ([9]; 0.04 µM) was 0.581. The viability ([9]; 0.2 µM) was 0.447, the viability ([9]; 1 µM) was 0.345 and the viability ([9]; 5 µM) was 0.211. For the same molecule, the viability ([10]; 0.008 µM) was 0.974, the viability ([10]; 0.04 µM) was 0.963 and the viability ([10]; 0.2 µM) was 1.07. The viability ([10]; 1 µM) was 0.332, the viability ([10]; 5 µM) was 0.016 and the viability ([11]; 0.008 µM) was 0.868. For the same molecule, the viability ([11]; 0.04 µM) was 0.763, the viability ([11]; 0.2 µM) was 0.717 and the viability ([11]; 1 µM) was 0.548. For the same molecule, the viability ([11]; 5 µM) was 0.177, the viability ([12]; 0.008 µM) was 0.818 and the viability ([12]; 0.04 µM) was 0.384. For the same molecule, the viability ([12]; 0.2 µM) was 0.203, the viability ([12]; 1 µM) was 0.041 and the viability ([12]; 5 µM) was 0.0174. For the same molecule, the viability ([13]; 0.008 µM) was 0.538, the viability ([13]; 0.04 µM) was 0.295 and the viability ([13]; 0.2 µM) was 0.277. For the same molecule, the viability ([13]; 1 µM) was 0.065, the viability ([13]; 5 µM) was 0.0217 and the viability ([14]; 0.008 µM) was 0.535. For the same molecule, the viability ([14]; 0.04 µM) was 0.271, the viability ([14]; 0.2 µM) was 0.216 and the viability ([14]; 1 µM) was 0.0605. The viability ([14]; 5 µM) was 0.0218.
`CC1(COc2ccc3c(c2)ncn3-c2ccc3cccc(N4CCC(N)CC4)c3n2)COC1` [Crenolanib] showed a viability ([1]; 0.016 µM) of 1, a viability ([1]; 0.08 µM) of 1.12 and a viability ([1]; 0.4 µM) of 1.07. The viability ([1]; 2 µM) was 0.624, the viability ([1]; 10 µM) was 0.0262 and the viability ([2]; 0.016 µM) was 1.03. For the same molecule, the viability ([2]; 0.08 µM) was 1.32, the viability ([2]; 0.4 µM) was 1.37 and the viability ([2]; 2 µM) was 1.58. It also gave a viability ([2]; 10 µM) of 0.101, a viability ([3]; 0.016 µM) of 1.08 and a viability ([3]; 0.08 µM) of 1.07. The viability ([3]; 0.4 µM) was 0.983, the viability ([3]; 2 µM) was 0.447 and the viability ([3]; 10 µM) was 0.0254. The viability ([4]; 0.016 µM) was 1.04, the viability ([4]; 0.08 µM) was 1.24 and the viability ([4]; 0.4 µM) was 0.794. The viability ([4]; 2 µM) was 0.553, the viability ([4]; 10 µM) was 0.0382 and the viability ([5]; 0.016 µM) was 0.927. It also gave a viability ([5]; 0.08 µM) of 1.17, a viability ([5]; 0.4 µM) of 0.995 and a viability ([5]; 2 µM) of 1.19. It also gave a viability ([5]; 10 µM) of 0.148, a viability ([6]; 0.016 µM) of 0.824 and a viability ([6]; 0.08 µM) of 0.612. The viability ([6]; 0.4 µM) was 0.835, the viability ([6]; 2 µM) was 0.835 and the viability ([6]; 10 µM) was 0.0567. The viability ([7]; 0.016 µM) was 0.672, the viability ([7]; 0.08 µM) was 0.712 and the viability ([7]; 0.4 µM) was 0.778. The viability ([7]; 2 µM) was 1.38, the viability ([7]; 10 µM) was 0.103 and the viability ([8]; 0.016 µM) was 1.09. The viability ([8]; 0.08 µM) was 1.13, the viability ([8]; 0.4 µM) was 1.02 and the viability ([8]; 2 µM) was 0.305. For the same molecule, the viability ([8]; 10 µM) was 0.0182, the viability ([9]; 0.016 µM) was 1.06 and the viability ([9]; 0.08 µM) was 1.09. It also gave a viability ([9]; 0.4 µM) of 1.04, a viability ([9]; 2 µM) of 0.811 and a viability ([9]; 10 µM) of 0.572. The viability ([10]; 0.016 µM) was 1.12, the viability ([10]; 0.08 µM) was 1.1 and the viability ([10]; 0.4 µM) was 1.05. It also gave a viability ([10]; 2 µM) of 1.02, a viability ([10]; 10 µM) of 0.0351 and a viability ([11]; 0.016 µM) of 1.02. The viability ([11]; 0.08 µM) was 0.971, the viability ([11]; 0.4 µM) was 1 and the viability ([11]; 2 µM) was 0.847. It also gave a viability ([11]; 10 µM) of 0.357, a viability ([12]; 0.016 µM) of 1.14 and a viability ([12]; 0.08 µM) of 0.997. It also gave a viability ([12]; 0.4 µM) of 1.02, a viability ([12]; 2 µM) of 0.824 and a viability ([12]; 10 µM) of 0.0337. For the same molecule, the viability ([13]; 0.016 µM) was 1.13, the viability ([13]; 0.08 µM) was 1.3 and the viability ([13]; 0.4 µM) was 2.22. For the same molecule, the viability ([13]; 2 µM) was 1.82, the viability ([13]; 10 µM) was 0.0652 and the viability ([14]; 0.016 µM) was 0.695. For the same molecule, the viability ([14]; 0.08 µM) was 0.674, the viability ([14]; 0.4 µM) was 0.584 and the viability ([14]; 2 µM) was 0.439. For the same molecule, the viability ([14]; 10 µM) was 0.033.
